What was measured:
[1] = Viscosity of the mixed composition (Brookfield digital viscometer); type: physicochemical; conditions: for Viscosity of the mixed composition: acid replacing citric acid in activated flux of Example 1, relative scale; for Viscosity trend versus composition without stabilizing agent: time following mixing
[2] = Stability / pot life of the mixed composition held at room temperature; conditions: in fluxing component of the two-component composition
Procedure: The two components were mixed at a proportion of 3.6:1 (by weight). The mixed composition was held at room temperature and its viscosity was measured hourly by Brookfield digital viscometer. Following each viscosity measurement, a line was printed on a glass substrate, the line being 50 mm long, 2 mm wide, and 40 μm thick. The printed ink was then sintered in a forced-air oven at 150° C. and the resistance of the obtained printed line was measured.

Row | Viscosity of the mixed composition [1] | SMILES | also measured
1 | 1 | O=C(O)/C=C/C(=O)O [Fumaric, fumaric acid] | –
2 | 5 | O=C(O)/C=C\C(=O)O [Maleic, maleic acid] | –
3 | 1 | O=C(O)C(=O)O [Oxalic, Oxalic acid] | Viscosity behaviour at room temperature following mixing [1]: increased within a few minutes such that it was not suitable for printing
4 | 5 | O=C(O)C(O)C(O)C(=O)O (stereo not shown) [Tartaric, tartaric acid] | –
5 | – | CCCCCCCCCCCCS [dodecanethiol] | Viscosity trend versus composition without stabilizing agent [1]: smaller viscosity increase
6 | – | CCCCCCCCS [octanethiol] | Effect of the stabilizing agent on pot life [2]: extend the pot life; Viscosity trend versus composition without stabilizing agent [1]: smaller viscosity increase
7 | – | NC(N)=S [thiourea] | Effect of the stabilizing agent on pot life [2]: extending the pot life

Row | SMILES | Viscosity of the mixed composition [1] | also measured
8 | CC(=O)O [Acetic, acetic acid] | 5 | –
